Values joined by “and” are separate entries in the source; they are usually repeats but may differ in a detail not shown here. Equal entries are not always repeated.

Test [1] concerns VERPE. The test can be described thus: Pre-emergence herbicidal action against VERPE. Format: in vivo, Veronica persica. The settings on record: Veronica persica, 504 h. Summed up:
(§1)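 Sandy loam pots, seeds covered with soil, then surface-treated with WP or EC formulations at 600–800 l/ha water plus 0.2% wetting agent. Greenhouse, 3 weeks. Percent damage vs untreated controls.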

The test system of test [2] is POLCO. Kind of test: Pre-emergence herbicidal action against POLCO. It counts as in vivo, Polygonum convolvulus. In outline: as §1
Test [3] concerns DIGSA. Kind of test: Pre-emergence herbicidal action against DIGSA. Format: in vivo, Digitaria sanguinalis. In outline:
as §1

In test [4] the test system is AMARE. Kind of test: Pre-emergence herbicidal action against AMARE. It counts as in vivo, Amaranthus retroflexus. In outline: as §1
The subject of test [5] is VIOTR. The test can be described thus: Pre-emergence herbicidal action against VIOTR. It counts as in vivo, Viola tricolor. As to conditions: for pest or weed control at 80 g/ha / Pre-emergence action against VIOTR in %: dosage 80 g/ha. Summed up: as §1
The subject of test [6] is STEME. The test can be described thus: Pre-emergence herbicidal action against STEME. It counts as in vivo, Stellaria media. As to conditions: for pest or weed control at 80 g/ha / Pre-emergence action against STEME in %: dosage 80 g/ha. The source says:
Seeds of monocotyledonous and dicotyledonous weed plants and crop plants are laid out in sandy loam soil in wood-fiber pots and covered with soil. The compounds of the invention, formulated in the form of wettable powders (WP) or as emulsion concentrates (EC), are then applied to the surface of the covering soil in the form of an aqueous suspension or emulsion at a water application rate equivalent to 600 to 800 l/ha, with addition of 0.2% wetting agent. After the treatment, the pots are placed in a greenhouse and kept under good growth conditions for the trial plants. The damage to the test plants is scored visually after a test period of 3 weeks by comparison with untreated controls (herbicidal activity in percent (%): 100% activity=the plants have died, 0% activity=like control plants). […] The tables below illustrate, in an illustrative manner, the post-emergence herbicidal action of the compounds of the invention, the herbicidal activity being stated in percent.

Test [7] relates to VIOTR. Kind of test: Post-emergence herbicidal action against VIOTR. Format: in vivo, Viola tricolor. The settings on record: Viola tricolor, 504 h. Summed up:
(§2)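 Visual % rating (0% = as untreated, 100% = dead) ~3 wk after spraying one-leaf-stage plants grown in sandy loam; WP/EC in water at 600–800 l/ha, 0.2% wetting agent.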

In test [8] the test system is MATIN. The test can be described thus: Pre-emergence herbicidal action against MATIN. It counts as in vivo, Matricaria inodora. The settings on record: for pest or weed control at 20 g/ha / pest or weed control at 80 g/ha: Tripleurospermum inodorum, 504 h. In outline: as §1
Test [9] has as its system AMARE. The test can be described thus: Post-emergence herbicidal action against AMARE. It counts as in vivo, Amaranthus retroflexus. The settings on record: 20 g/ha, visual assessment about 3 weeks after treatment, 100% = plants have died, 0% = like control plants; for pest or weed control at 20 g/ha: Amaranthus retroflexus, 504 h. Summed up:
as §2

In test [10] the test system is SETVI. The test can be described thus: Post-emergence herbicidal action against SETVI. Format: in vivo, Setaria viridis. The settings on record: dosage 20 g/ha. Summed up: as §2
In test [11] the test system is AVEFA. The test can be described thus: Post-emergence herbicidal action against AVEFA. Format: in vivo, Avena fatua. As to conditions: Avena fatua, 504 h, visual assessment about 3 weeks after treatment, 100% = plants have died, 0% = like control plants. As for the experimental part: Seeds of monocotyledonous and dicotyledonous weed and crop plants are laid out in sandy loam soil in wood-fiber pots, covered with soil and cultivated in a greenhouse under good growth conditions. 2 to 3 weeks after sowing, the test plants are treated at the one-leaf stage. The compounds of the invention, formulated in the form of wettable powders (WP) or as emulsion concentrates (EC), are then sprayed onto the green parts of the plants in the form of an aqueous suspension or emulsion at a water application rate equivalent to 600 to 800 l/ha, with addition of 0.2% wetting agent. After the test plants have been left to stand in the greenhouse under optimal growth conditions for about 3 weeks, the action of the preparations is assessed visually in comparison to untreated controls (herbicidal action in percent (%): 100% activity=the plants have died, 0% activity=like control plants). […] The tables below illustrate, in an illustrative manner, the post-emergence herbicidal action of the compounds of the invention, the herbicidal activity being stated in percent.

In test [12] the test system is ECHCG. The test can be described thus: Pre-emergence herbicidal action against ECHCG. It counts as in vivo, Echinochloa crus-galli. Summed up:
as §1

Test [13] relates to SETVI. Kind of test: Pre-emergence herbicidal action against SETVI. Format: in vivo, Setaria viridis. The settings on record: Setaria viridis, 504 h; for pest or weed control at 80 g/ha: dosage 80 g/ha. Summed up: as §1
Test [14] concerns ECHCG. Kind of test: Post-emergence herbicidal action against ECHCG. Format: in vivo, Echinochloa crus-galli. As to conditions: Echinochloa crus-galli, 504 h, dosage 20 g/ha. Summed up: as §2
In test [15] the test system is AVEFA. Kind of test: Pre-emergence herbicidal action against AVEFA. It counts as in vivo, Avena fatua. As to conditions: Avena fatua, 504 h, pre-emergence. Summed up:
as §1

The test system of test [16] is ABUTH. Kind of test: Pre-emergence herbicidal action against ABUTH. As to conditions: for pest or weed control at 80 g/ha / Pre-emergence action against ABUTH (herbicidal activity): scored visually after 3 weeks vs untreated controls (100% = plants have died, 0% = like control plants), 80 g/ha. Format: in vivo, Abutilon theophrasti. In outline:
as §1

Test [17] relates to ABUTH. The test can be described thus: Post-emergence herbicidal action against ABUTH. As to conditions: visual assessment about 3 weeks after treatment vs untreated controls. Format: in vivo, Abutilon theophrasti. In outline: as §2
Test [18] relates to ALOMY. The test can be described thus: Pre-emergence herbicidal action against ALOMY. Format: in vivo, Alopecurus myosuroides. As to conditions: Alopecurus myosuroides, 504 h; 80 g/ha, pre-emergence, scored visually after 3 weeks vs untreated controls (100% = plants have died, 0% = like control plants). In outline: as §1
The test system of test [19] is VERPE. The test can be described thus: Post-emergence herbicidal action against VERPE. Format: in vivo, Veronica persica. The settings on record: 20 g/ha. Summed up: as §2
Setting [20] is: Digitaria sanguinalis, 504 h, dosage 80 g/ha.
The mark [21] stands for this setting: Amaranthus retroflexus, 504 h, 20 g/ha, scored visually after 3 weeks vs untreated controls, 100% = plants have died, 0% = like control plants.
Where [22] appears, read: Amaranthus retroflexus, 504 h, 80 g/ha, scored visually after 3 weeks vs untreated controls, 100% = plants have died, 0% = like control plants.
[23] abbreviates: Abutilon theophrasti, 504 h, dosage 20 g/ha.
Where [24] appears, read: 20 g/ha, scored visually after 3 weeks vs untreated controls, 100% = plants have died, 0% = like control plants.
Setting [25] is: 80 g/ha, scored visually after 3 weeks vs untreated controls (100% = plants have died, 0% = like control plants).

By pest or weed control is commonly meant the degree to which the test organism was suppressed or injured, in per cent. A high value points to a strong effect. As for `Cn1nnnc1NC(=O)c1ccc(S(C)(=O)=O)c(C(=O)NC2CC2)c1Cl` [Example 1-125], the pest or weed control at 20 g/ha came to 80% in [1] (dosage 20 g/ha); 80% in [2] (Fallopia convolvulus, 504 h, dosage 20 g/ha); 90% in [4] (setting [21]); 100% in test [7]; 80% in test [8] (dosage 20 g/ha); 80% in test [9]. The pest or weed control at 80 g/ha in [1] (dosage 80 g/ha) came out at 80%; in test [2] (Fallopia convolvulus, 504 h, dosage 80 g/ha) it was 80%; in test [3] (setting [20]), 90%; in test [4] (setting [22]), 100%; in [5] (Viola tricolor, 504 h), 100%; in test [6] (Stellaria media, 504 h), 100%. For the same molecule, the pest or weed control at 80 g/ha in test [8] (dosage 80 g/ha) was 100%. Besides, the pest or weed control at 5 g/ha in [7] (5 g/ha) came to 100%.
In the case of `Cc1c(C(=O)Nc2nnnn2C)ccc(C(F)(F)F)c1C(=O)NCC(F)(F)F` [Example 1-29], the pest or weed control at 20 g/ha came out at 80% in [10] (Setaria viridis, 504 h); 90% in test [11] (20 g/ha); 100% in test [3] (Digitaria sanguinalis, 504 h, dosage 20 g/ha); 100% in test [4] (setting [21]); 80% in test [14]; 100% in test [5] (Viola tricolor, 504 h, dosage 20 g/ha). For the same molecule, the pest or weed control at 20 g/ha in test [15] (20 g/ha, scored visually after 3 weeks, 100% = plants have died, 0% = like control plants) is 80%; in [17] (setting [23]), 80%; in [8] (dosage 20 g/ha), 100%. Further, the pest or weed control at 5 g/ha in test [11] (5 g/ha) was 80%. Besides, the pest or weed control at 80 g/ha was 90% in test [12] (Echinochloa crus-galli, 504 h, 80 g/ha); 100% in test [13]; 100% in test [3] (setting [20]); 100% in test [4] (setting [22]); 100% in test [5] (Viola tricolor, 504 h); 90% in [15] (80 g/ha). Moreover, the pest or weed control at 80 g/ha in [16] (Abutilon theophrasti, 504 h) came to 100%; in [18] it was 100%; in [8] (dosage 80 g/ha), 100%.
With `CCc1c(C(=O)Nc2ncnn2C)ccc(C(F)(F)F)c1C(=O)NC1CC1` [Example 4-212], the “Post-emergence action against SETVI in %” value in [10] came out at 80%. The “Pre-emergence action against ECHCG in %” value in [12] (80 g/ha) came out at 80%. Besides, the “Pre-emergence action against DIGSA in %” value is on record as 80% in [3] (dosage 20 g/ha) and 90% in test [3] (dosage 80 g/ha). Besides, the “Pre-emergence action against AMARE in %” value in test [4] (setting [24]) and in test [4] (setting [25]) was 90% in each case. Besides, the “Pre-emergence action against VIOTR in %” value in test [5] turned out to be 90%. Further, the “Pre-emergence action against ABUTH (herbicidal activity)” value in test [16] was 90%. The “Post-emergence action against ABUTH in %” value in test [17] (dosage 20 g/ha) was 80%. Moreover, the “Pre-emergence action against STEME in %” value in test [6] worked out at 90%. Moreover, the “Pre-emergence action against MATIN in %” value in test [8] (dosage 20 g/ha) was 80%; in test [8] (dosage 80 g/ha), 80% and 90%. Moreover, in test [9], the “Post-emergence action at 20 g/ha against AMARE in %” value is 80%.
For the molecule `CC(=O)NC(=O)c1c(C(F)(F)F)ccc(C(=O)Nc2nnc(C)o2)c1Cl` [Example 6-252], the pest or weed control at 320 g/ha in test [12] (Echinochloa crus-galli, 504 h, 320 g/ha) was found to be 90%; in test [13] (dosage 320 g/ha), 90%; in test [3] (Digitaria sanguinalis, 504 h, dosage 320 g/ha), 90%; in [4] (Amaranthus retroflexus, 504 h, 320 g/ha, scored visually after 3 weeks, 100% = plants have died, 0% = like control plants), 90%; in test [16] (Abutilon theophrasti, 504 h, Dosage: 320 g/ha, scored visually after 3 weeks, 100% = plants have died, 0% = like control plants), 90%; in test [6] (Stellaria media, 504 h, dosage 320 g/ha) it was 90%. The pest or weed control at 80 g/ha in test [13] was 90%; in test [3] (setting [20]) it was 90%; in test [4] (setting [22]) it was 90%; in test [16] (Abutilon theophrasti, 504 h) it was 80%; in [17] (Abutilon theophrasti, 504 h, dosage 80 g/ha), 100%. The pest or weed control at 20 g/ha in test [4] (setting [21]) and in test [17] (setting [23]) was 80% each time.
For `CCn1nnnc1NC(=O)c1ccc(S(C)(=O)=O)c(C(=O)NC)c1Cl` [Example 2-123], the “Post-emergence action against VERPE in %” value in test [19] amounted to 80%. Moreover, in test [2] (dosage 80 g/ha), the “Pre-emergence action against POLCO in %” value came out at 80%. The entries for the “Pre-emergence action against DIGSA in %” value in test [3] (dosage 20 g/ha) and in [3] (dosage 80 g/ha) were 80% and 90%, respectively. In addition, the “Pre-emergence action against AMARE in %” value in test [4] (setting [24]) is listed as 80%; in test [4] (setting [25]) it was 100%. Moreover, the “Pre-emergence action against VIOTR in %” value in test [5] came out at 80%. Further, in [16], the “Pre-emergence action against ABUTH (herbicidal activity)” value was 100%. Besides, the “Pre-emergence action against STEME in %” value in test [6] amounted to 80%. The “Pre-emergence action against MATIN in %” value in test [8] (dosage 20 g/ha) is 80%; in [8] (dosage 80 g/ha), 100%. The “Post-emergence action at 20 g/ha against AMARE in %” value in test [9] is given as 80%.
Regarding `CNC(=O)c1c(S(C)(=O)=O)ccc(C(=O)Nc2nnnn2C)c1Cl` [Example 1-123], the pest or weed control at 80 g/ha in test [3] (setting [20]) stood at 90%; in [4] (setting [22]), 100%; in test [5] (Viola tricolor, 504 h), 80%; in test [16] (Abutilon theophrasti, 504 h), 100%; in test [6] (Stellaria media, 504 h) it was 90%; in test [8] (dosage 80 g/ha) it was 100%. Further, the pest or weed control at 20 g/ha was found to be 80% in [4] (setting [21]); 80% in test [17] (setting [23]); 100% in test [7]; 80% in test [8] (dosage 20 g/ha); 80% in [9].

The values are drawn from patent publication US12655116B2, “Substituted isophthalic acid diamides” (Bayer Aktiengesellschaft, priority 2020, dated 2026).
